In ChEMBL document CHEMBL1933035, “Discovery of pyrrolidine-based β-secretase inhibitors: lead advancement through conformational design for maintenance of ligand binding efficiency” (Bioorg Med Chem Lett, 2012):

Experiments:
[1] = Oral bioavailability in rat at 10 mg/kg; type: ADME, organism-based; conditions: in vivo
[2] = Clearance in rat at 2 mg/kg, iv; type: ADME, organism-based; parameters: dose 2 mg/kg, route intravenous; conditions: in vivo

`O=C([C@@H]1CNC[C@]12CCCc1nc(Cl)ccc12)N1CC[C@@H](c2ccccc2)C[C@H]1C1CCCCC1` showed a bioavailability [1] of 44% and a clearance [2] of 15 mL/min/kg.
